These results are taken from patent publication US20260327264A1, “PEPTIDE INHIBITORS OF INTERLEUKIN-23 RECEPTOR” (Zealand Pharma A/S, priority 2023, published 2026).

The target of data set [1] is T1, human IL-23R (Homo sapiens, UniProt Q5VWK5).
T1 construct: Nanoluc luciferase (Nluc); secretion signal encoded by the plasmid (not specified); expressed in transfected cells; crude membranes used in the assay
T1 sequence (Q5VWK5 22-629): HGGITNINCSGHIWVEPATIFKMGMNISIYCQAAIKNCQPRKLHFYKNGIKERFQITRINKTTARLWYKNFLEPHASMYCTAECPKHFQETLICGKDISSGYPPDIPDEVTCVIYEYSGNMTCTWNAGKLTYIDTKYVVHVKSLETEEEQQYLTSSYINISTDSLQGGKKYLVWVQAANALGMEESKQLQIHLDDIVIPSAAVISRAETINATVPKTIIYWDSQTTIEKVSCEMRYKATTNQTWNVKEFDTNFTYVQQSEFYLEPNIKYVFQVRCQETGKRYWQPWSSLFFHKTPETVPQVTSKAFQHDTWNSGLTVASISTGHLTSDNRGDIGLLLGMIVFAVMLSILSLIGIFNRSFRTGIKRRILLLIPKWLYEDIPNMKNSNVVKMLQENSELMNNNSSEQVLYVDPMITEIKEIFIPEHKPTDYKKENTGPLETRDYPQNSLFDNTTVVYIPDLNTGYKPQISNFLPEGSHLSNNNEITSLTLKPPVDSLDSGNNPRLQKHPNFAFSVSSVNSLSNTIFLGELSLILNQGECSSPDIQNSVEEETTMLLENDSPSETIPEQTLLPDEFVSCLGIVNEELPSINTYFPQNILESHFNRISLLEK
As to the kind of experiment: Binding assay: displacement of fluorophore (TAMRA)-labelled reference compound from human IL-23R (BRET, Nluc-IL23R fusion protein membranes).
Text: The assay principle relies on Bioluminescence Resonance Energy Transfer (BRET) between a fluorophore-labelled reference compound binding to the IL-23R part of a fusion protein consisting of the IL-23R fused to a Nanoluc luciferase enzyme (Nanoluc). The Nanoluc is placed in the N-terminus in close proximity to the binding domain of the ligand. Upon close proximity between the fluorophore of the fluorophore-labelled compound and the Nanoluc of the fusion protein, bioluminescence energy generated from conversion of a Nanoluc substrate, is transferred to the fluorophore resulting in an increase in BRET. In presence of an unlabelled compound, the unlabelled compound displaces the fluorophore-labelled peptide from its binding site resulting in a decrease in BRET. The concentration for which half of the fluorophore-labelled peptide is displaced by the unlabelled compound depends on the affinity of the compound for the IL-23R, and is termed the IC50 concentration.
The plasmid also contained a gene to confer resistance for the antibiotic hygromycin. A cell line stably expressing the Nluc-IL23R fusion protein was generated by transfection of HEK293 cells with the expression plasmid and selected with hygromycin for 3 weeks in Growth medium consisting of DMEM w/Glutamax-I containing, 10% V/V FBS, 1% V/V P/S, 1 mM Sodium Pyruvate, and 1× NEAA, and 0.3 mg/mL hygromycin. The remaining cells were propagated and considered a stable expressing Nluc-IL23R fusion protein pool clone.
Cells expressing the Nluc-IL23R fusion protein were expanded in Growth medium and membranes prepared by homogenization of a cell pellet from 18 T175 flasks (4° C. in subsequent steps). The cell pellet was lysed Tris 10 mM, 7.5, 1 mM EDTA and protease inhibitors (Complete, Roche) and homogenized using a 15 mL glass-dounce by 50 strokes. The homogenate was spun at spin @1500 rpm for 10 min, the supernatant transferred to SV-34 tubes and spun at 40000 g for 20 min at 4° C. to pellet the crude membranes. The supernatant was then removed, the pellet resuspended in 5 mL buffer containing 50 mM HEPES pH 7.4, 5 mM EGTA, and 5 mM MgCl2, and homogenized. Aliquots of the resuspended and homogenized membranes containing the Nluc-IL23R fusion protein were stored at −80° C. until use.
The plate was sealed with light impermeable plate seals, and incubated on an orbital shaker 400 rpm for 2 hours at room temperature. To determine the BRET ratio, the plate seal was removed and 25 μL of the Nanoluc substrate (Promega N1572) diluted 1:500 was added to each well and incubated for 1-2 minutes on an orbital shaker at 400 rpm. […] The BRET ratio was calculated as the fluorescence from the TAMRA/nanoluc bioluminescence.
Compound potency (IC50) and maximal displacement (% displacement) were estimated by computer-aided curve fitting using a 4-parameter logistic (4PL) non-linear model. The IC50 and maximal for each compound was determined by computer-aided curve fitting using a 4-parameter logistic (4PL) non-linear model.

Data set [2] has as its system IL-23 mediated STAT3 signalling (DB cells). The data set is described as follows: Functional inhibition of IL-23 mediated STAT3 signalling (phospho-STAT3 Tyr705) in DB cells. The format is cell-based, human. Particulars: for IC50: Table 3-2, EC80 of hIL-23, read-out: hIL-23 (pSTAT3) antagonist IC50; for hIL-23 (pSTAT3) antagonist % inhibition: Table 3-2, maximal inhibitory response, EC80 of hIL-23. In outline:
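DB cells preincubated 15 min with inhibitor at 37° C, 5% CO2, then stimulated 90 min with hIL-23 at EC80. Lysate phospho-STAT3 measured by MSD electrochemiluminescence. Signal normalized to IL-23-alone and buffer wells; IC50 and maximal inhibition from concentration–response curves.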

Data set [3] can be described thus: Peptide stability in simulated intestinal fluid (SIF). The note with it: pig, simulated intestinal fluid, SIF, pH 6.8, pancreatin, 37° C., 10 μM; for remaining at 4 h, 10 µM: read-out: SIF (% remaining 4 h). The class given is in vitro ADME. In a few lines:
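Peptide at 10 μM final in USP-type SIF (10 g/L porcine pancreatin, phosphate buffer pH 6.8), shaken at 37 °C. Samples at 0, 1 and 4 h quenched in acetonitrile/0.1% formic acid and analysed by LC-HRMS. Percent remaining calculated from absolute peak areas relative to time zero.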

The nature of data set [4]: Peptide stability in simulated gastric fluid (SGF). The note with it: pig, pH 1.2, pepsin, 37° C. The class given is in vitro ADME. In outline: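 Peptide (10 μM final) incubated at 37 °C in USP SGF, pH 1.2 with porcine pepsin 3.2 g/L; aliquots at 0, 1 and 4 h quenched in acidified acetonitrile.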
Data set [5] concerns IL-23R. The note with it: see Examples of WO2023/099669; cited from earlier work.

`CNC(=O)[C@H](Cc1cccnc1)NC(=O)[C@@H](CO)NC(=O)[C@@H]1CCC(=O)NCc2ccc(cc2)CC(=O)N[C@@H](CO)C(=O)N[C@H]2CCC(=O)NCC[C@H](NC(=O)[C@H](CCC(N)=O)NC(=O)[C@H](Cc3c[nH]c4ccccc34)NC2=O)C(=O)N[C@@H](Cc2ccc(OCCN)cc2)C(=O)N[C@@H](Cc2ccc3ccccc3c2)C(=O)N[C@@](C)(CC(C)C)C(=O)N1` [Compound 38, [4-Aminomethyl-phenylacetyl](1c)*SE(2c)WQ[Dab](2c)[Y(2-aminoethoxy)][2-Nal][2-Me-Leu]E(1c)[{d}S][3-(3-Pyridyl)-Ala]-[NHMe]]: the Emax in data set [1] (read-out: % displacement (hIL-23R binding)) stood at 102%. Also, in data set [2], the IC50 (usually the concentration that inhibits the measured activity by half) was found to be 1 nM and the “hIL-23 (pSTAT3) antagonist % inhibition” value is reported as 100%. In addition, in data set [3], the share remaining at 1 h, 10 µM was 82%. Also, in data set [4], the amount remaining at 1 h, 10 µM was 100%.

`CNC(=O)[C@H](Cc1cccnc1)NC(=O)[C@](C)(CO)NC(=O)[C@@H]1CCC(=O)NCc2ccc(cc2)CC(=O)N[C@@H](CO)C(=O)N[C@H]2CCC(=O)NCC[C@H](NC(=O)[C@H](CCC(N)=O)NC(=O)[C@H](Cc3c[nH]c4ccccc34)NC2=O)C(=O)N[C@@H](Cc2ccc(OCCN)cc2)C(=O)N[C@@H](Cc2ccc3ccccc3c2)C(=O)N[C@@](C)(CC(C)C)C(=O)N1` [Compound 39, [4-Aminomethyl-phenylacetyl](1c)*SE(2c)WQ[Dab](2c)[Y(2-aminoethoxy)][2-Nal][2-Me-Leu]E(1c)[2-Me-Ser][3-(3-Pyridyl)-Ala]-[NHMe]]: the half-inhibitory concentration (IC50) in data set [1] was determined as 0.024 nM; in data set [2], 0.51 nM. Besides, the “hIL-23 (pSTAT3) antagonist % inhibition” value in data set [2] came to 101%. Further, the fraction remaining at 4 h, 10 µM in data set [3] was 85%; in data set [4], 96%.

The compound `CNC(=O)[C@H](Cc1cccnc1)NC(=O)[C@H](CCN)NC(=O)[C@@H]1CCC(=O)NCc2ccc(cc2)CC(=O)N[C@@H](C)C(=O)N[C@H]2CCC(=O)NCC[C@H](NC(=O)[C@H](CCC(N)=O)NC(=O)[C@H](Cc3c[nH]c4ccccc34)NC2=O)C(=O)N[C@@H](Cc2c[nH]c3c(F)cccc23)C(=O)N[C@@H](Cc2ccc3ccccc3c2)C(=O)NC(C)(C)C(=O)N1` [Compound 47, [4-Aminomethyl-phenylacetyl](1c)*AE(2c)WQ[Dab](2c)[7-F-Trp][2-Nal][Aib]E(1c)[Dab][3-(3-Pyridyl)-Ala]-[NHMe]] came in with an IC50 in data set [1] of 0.069 nM. In addition, in data set [2], the IC50 was determined as 0.33 nM and the “hIL-23 (pSTAT3) antagonist % inhibition” value is 98%. For the same compound, in data set [3], the share remaining at 1 h, 10 µM was 97% and the fraction remaining at 4 h, 10 µM was 92%. In addition, in data set [4], the amount remaining at 1 h, 10 µM is 103% and the amount remaining at 4 h, 10 µM is 85%.

For the compound D(1c)*SC(2a)WQC(2a)WWLR(1c)* [Ref 6], the “inhibitory activity (in words), WO2023/099669” value (shortened to “inhibitory activity (in words)”) in data set [5] was “inactive”.

Turning to “H-DC(1a)SE(2c)WQK(2c)WWLC(1a)R-[NH2] [Ref 5]”, the “inhibitory activity (in words)” value in data set [5] is “inactive”.

Turning to “[Ac]-DK(1c)SC(2a)WQC(2a)WWLE(1c)R-[NH2] [Ref 7]”, the “inhibitory activity (in words)” value in data set [5] is “inactive”.
